Columns and labels:
Hepatotoxicity [1] = system: Hepatotoxicity;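 as to HepSE bilirubinemia: bilirubinemia hepatic side effect score drawn from the DILIps training data, a prediction system for drug-induced liver injury; call rule not given here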;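 as to HepSE cholecystitis: Cholecystitis-related hepatic side effect score drawn from the DILIps (drug-induced liver injury prediction) training data set; call rule not given here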;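 as to HepSE cholelithiasis: hepatic side effect score for cholelithiasis, drawn from the DILIps training data for predicting drug-induced liver injury; call rule not given here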;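 as to HepSE cirrhosis: cirrhosis hepatic side effect score taken from the DILIps (drug-induced liver injury prediction) training set; call rule not given here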;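 as to HepSE elevated liver function tests: hepatic side effect score for raised liver function tests, as recorded in the DILIps training set used for predicting drug-induced liver injury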; as to HepSE hepatic failure: call rule not given here;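 as to HepSE hepatomegaly: hepatic side effect score for hepatomegaly, taken from the training set of the DILIps drug-induced liver injury prediction system; call rule not given here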
Hepatotoxicity [2] = system: Hepatotoxicity; remark: listed apart in the source;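 as to HepSE bilirubinemia: bilirubinemia hepatic side effect score drawn from the DILIps training data, a prediction system for drug-induced liver injury; call rule not given here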;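 as to HepSE cholecystitis: Cholecystitis-related hepatic side effect score drawn from the DILIps (drug-induced liver injury prediction) training data set; call rule not given here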;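 as to HepSE cholelithiasis: hepatic side effect score for cholelithiasis, drawn from the DILIps training data for predicting drug-induced liver injury; call rule not given here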;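 as to HepSE cirrhosis: cirrhosis hepatic side effect score taken from the DILIps (drug-induced liver injury prediction) training set; call rule not given here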;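 as to HepSE elevated liver function tests: hepatic side effect score for raised liver function tests, as recorded in the DILIps training set used for predicting drug-induced liver injury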; as to HepSE hepatic failure: call rule not given here
Hepatotoxicity [3] = system: Hepatotoxicity; remark: listed apart in the source;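 as to HepSE bilirubinemia: bilirubinemia hepatic side effect score drawn from the DILIps training data, a prediction system for drug-induced liver injury; call rule not given here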;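 as to HepSE cholecystitis: Cholecystitis-related hepatic side effect score drawn from the DILIps (drug-induced liver injury prediction) training data set; call rule not given here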;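 as to HepSE cholelithiasis: hepatic side effect score for cholelithiasis, drawn from the DILIps training data for predicting drug-induced liver injury; call rule not given here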;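 as to HepSE cirrhosis: cirrhosis hepatic side effect score taken from the DILIps (drug-induced liver injury prediction) training set; call rule not given here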;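 as to HepSE elevated liver function tests: hepatic side effect score for raised liver function tests, as recorded in the DILIps training set used for predicting drug-induced liver injury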; as to HepSE hepatic failure: call rule not given here
Hepatotoxicity [4] = system: Hepatotoxicity; remark: listed apart in the source;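 as to HepSE bilirubinemia: bilirubinemia hepatic side effect score drawn from the DILIps training data, a prediction system for drug-induced liver injury; call rule not given here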;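 as to HepSE cholecystitis: Cholecystitis-related hepatic side effect score drawn from the DILIps (drug-induced liver injury prediction) training data set; call rule not given here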;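 as to HepSE cholelithiasis: hepatic side effect score for cholelithiasis, drawn from the DILIps training data for predicting drug-induced liver injury; call rule not given here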;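 as to HepSE cirrhosis: cirrhosis hepatic side effect score taken from the DILIps (drug-induced liver injury prediction) training set; call rule not given here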;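 as to HepSE elevated liver function tests: hepatic side effect score for raised liver function tests, as recorded in the DILIps training set used for predicting drug-induced liver injury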; as to HepSE hepatic failure: call rule not given here
Hepatotoxicity [5] = system: Hepatotoxicity; remark: listed apart in the source; as to HepSE hepatic failure: call rule not given here
Hepatotoxicity [6] = system: Hepatotoxicity; remark: listed apart in the source; as to HepSE hepatic failure: call rule not given here
Hepatotoxicity [7] = system: Hepatotoxicity; remark: listed apart in the source
Hepatotoxicity [8] = system: Hepatotoxicity; remark: listed apart in the source
Hepatotoxicity [9] = system: Hepatotoxicity; remark: listed apart in the source
Hepatotoxicity [10] = system: Hepatotoxicity; remark: listed apart in the source
Hepatotoxicity [11] = system: Hepatotoxicity; remark: listed apart in the source
Hepatotoxicity [12] = system: Hepatotoxicity; remark: listed apart in the source
Hepatotoxicity [13] = system: Hepatotoxicity; remark: listed apart in the source
Hepatotoxicity [14] = system: Hepatotoxicity; remark: listed apart in the source

| SMILES | HepSE_bilirubinemia (Hepatotoxicity [1]) | HepSE_cholecystitis (Hepatotoxicity [2]) | HepSE_cholelithiasis (Hepatotoxicity [3]) | HepSE_cirrhosis (Hepatotoxicity [4]) | HepSE_elevated liver function tests (Hepatotoxicity [5]) | HepSE_hepatic failure (Hepatotoxicity [6]) | HepSE_hepatic necrosis (Hepatotoxicity [7]) | HepSE_hepatitis (Hepatotoxicity [8]) | HepSE_hepatomegaly (Hepatotoxicity [9]) | HepSE_jaundice (Hepatotoxicity [10]) | HepSE_liver disease (Hepatotoxicity [11]) | HepSE_liver fatty (Hepatotoxicity [12]) | HepSE_liver function tests abnormal (Hepatotoxicity [13]) | HepSE_Combined Scores (Hepatotoxicity [14]) | other results |
| --- | --- | --- | --- | --- | --- | --- | --- | --- | --- | --- | --- | --- | --- | --- | --- |
| CCCNC(=O)NS(=O)(=O)c1ccc(Cl)cc1 [CHLORPROPAMIDE] | 0 | 0 | 0 | 0 | 0 | 0 | 0 | 0 | 0 | 1 | 0 | 0 | 0 | 1 |  |
| NS(=O)(=O)c1cc(C2(O)NC(=O)c3ccccc32)ccc1Cl (stereo not drawn) [CHLORTHALIDONE] | 0 | 0 | 0 | 0 | 0 | 0 | 0 | 0 | 0 | 1 | 0 | 0 | 0 | 1 |  |
| C=C1CC[C@H](O)C/C1=C/C=C1\CCC[C@]2(C)[C@@H]([C@H](C)CCCC(C)C)CC[C@@H]12 [CHOLECALCIFEROL] | 0 | 0 | 0 | 0 | 0 | 0 | 0 | 0 | 0 | 0 | 0 | 0 | 0 | 0 |  |
| CC(C)C(=O)OCC(=O)[C@@]12O[C@H](C3CCCCC3)O[C@@H]1C[C@H]1[C@@H]3CCC4=CC(=O)C=C[C@]4(C)[C@H]3[C@@H](O)C[C@@]12C [CICLESONIDE] | 0 | 0 | 0 | 0 | 0 | 0 | 0 | 0 | 0 | 0 | 0 | 0 | 0 | 0 |  |
| Cc1cc(C2CCCCC2)n(O)c(=O)c1 [CICLOPIROX] | 0 | 0 | 0 | 0 | 0 | 0 | 0 | 0 | 0 | 0 | 0 | 0 | 0 | 0 |  |
| Nc1ccn(C[C@@H](CO)OCP(=O)(O)O)c(=O)n1.O.O [CIDOFOVIR] | 0 | 0 | 0 | 0 | 0 | 0 | 1 | 1 | 1 | 1 | 0 | 0 | 0 | 4 |  |
| CCOC(=O)[C@H](CCc1ccccc1)N[C@H]1CCCN2CCC[C@@H](C(=O)O)N2C1=O [CILAZAPRIL] | 0 | 0 | 0 | 0 | 0 | 0 | 0 | 1 | 0 | 0 | 0 | 0 | 0 | 1 |  |
| CN/C(=N/CCSCc1nc[nH]c1C)NC#N [CIMETIDINE] |  |  |  |  |  |  |  |  |  |  |  |  |  |  | HepSE_bilirubinemia (Hepatotoxicity [1]; Liver): 0; HepSE_cholecystitis (Hepatotoxicity [2]; Liver): 0; HepSE_cholelithiasis (Hepatotoxicity [3]; Liver): 0; HepSE_cirrhosis (Hepatotoxicity [4]; Liver): 0; HepSE_elevated liver function tests (Hepatotoxicity [5]; Liver): 0; HepSE_hepatic failure (Hepatotoxicity [6]; Liver): 0; HepSE_hepatic necrosis (Hepatotoxicity [7]; Liver): 0; HepSE_hepatitis (Hepatotoxicity [8]; Liver): 0; HepSE_hepatomegaly (Hepatotoxicity [9]; Liver): 0; HepSE_jaundice (Hepatotoxicity [10]; Liver): 0; HepSE_liver disease (Hepatotoxicity [11]; Liver): 0; HepSE_liver fatty (Hepatotoxicity [12]; Liver): 0; HepSE_liver function tests abnormal (Hepatotoxicity [13]; Liver): 0; HepSE_Combined Scores (Hepatotoxicity [14]; Liver): 0 |
| CCn1nc(C(=O)O)c(=O)c2cc3c(cc21)OCO3 [CINOXACIN] | 0 | 0 | 0 | 0 | 0 | 0 | 0 | 0 | 0 | 0 | 0 | 0 | 0 | 0 |  |
| COc1cc(N)c(Cl)cc1C(=O)NC1CCN(CCCOc2ccc(F)cc2)CC1OC (stereo not drawn) [CISAPRIDE] | 0 | 0 | 0 | 0 | 0 | 0 | 0 | 1 | 0 | 0 | 0 | 0 | 0 | 1 |  |
| CN(C)CCCC1(c2ccc(F)cc2)OCc2cc(C#N)ccc21 (stereo not drawn) [CITALOPRAM] | 1 | 1 | 1 | 0 | 0 | 1 | 1 | 1 | 0 | 1 | 0 | 0 | 0 | 7 |  |
| CC[C@H]1OC(=O)[C@H](C)[C@@H](O[C@H]2C[C@@](C)(OC)[C@@H](O)[C@H](C)O2)[C@H](C)[C@@H](O[C@@H]2O[C@H](C)C[C@H](N(C)C)[C@H]2O)[C@](C)(OC)C[C@@H](C)C(=O)[C@H](C)[C@@H](O)[C@]1(C)O [CLARITHROMYCIN] | 0 | 0 | 0 | 0 | 0 | 1 | 0 | 1 | 1 | 1 | 0 | 0 | 0 | 4 |  |
| CN1CCC[C@@H]1CCO[C@](C)(c1ccccc1)c1ccc(Cl)cc1 [CLEMASTINE] | 0 | 0 | 0 | 0 |  | 0 | 0 | 0 | 0 | 0 | 0 | 0 |  | 0 | HepSE_elevated liver function tests (Hepatotoxicity [5]; Liver): 0; HepSE_liver function tests abnormal (Hepatotoxicity [13]; Liver): 0 |
| CCC[C@@H]1C[C@@H](C(=O)N[C@@H]([C@H]2O[C@H](SC)[C@H](O)[C@@H](O)[C@H]2O)[C@H](C)Cl)N(C)C1 [CLINDAMYCIN] | 0 | 0 | 0 | 0 | 0 | 0 | 0 | 0 | 0 | 1 | 0 | 0 | 0 | 1 |  |
| C[C@H]1C[C@H]2[C@@H]3CCC4=CC(=O)C=C[C@]4(C)[C@@]3(F)[C@@H](O)C[C@]2(C)[C@@]1(O)C(=O)CCl [CLOBETASOL] | 0 | 0 | 0 | 0 | 0 | 0 | 0 | 0 | 0 | 0 | 0 | 0 | 0 | 0 |  |
| O=P(O)(O)C(Cl)(Cl)P(=O)(O)O [CLODRONIC ACID] | 0 | 0 | 0 | 0 | 0 | 0 | 0 | 0 | 0 | 0 | 1 | 0 | 0 | 1 |  |
| Nc1nc(Cl)nc2c1ncn2[C@@H]1O[C@H](CO)[C@@H](O)[C@@H]1F [CLOFARABINE] | 1 | 0 | 0 | 0 | 0 | 0 | 0 | 0 | 1 | 1 | 0 | 0 | 0 | 3 |  |
